Drawing on BindingDB's records for doi:10.1016/j.chembiol.2003.11.012 (Universit&Agrave, 2003), this text covers Ki for seven molecules.

What all share (test): Inhibition Assay
Holding throughout (conditions): pH 7; 20 °C

Experiment [1] has as its target Thymidylate synthase (Homo sapiens, UniProt P04818). Here is the method: (§1) The inhibition assay pattern for all of the compounds was determined by steady-state kinetic analysis of the dependence of the TS enzyme activity on folate concentration at various concentration.
The target in experiment [2] is T1, Thymidylate synthase (Lacticaseibacillus casei, UniProt P00469).
T1 sequence (P00469 whole entry): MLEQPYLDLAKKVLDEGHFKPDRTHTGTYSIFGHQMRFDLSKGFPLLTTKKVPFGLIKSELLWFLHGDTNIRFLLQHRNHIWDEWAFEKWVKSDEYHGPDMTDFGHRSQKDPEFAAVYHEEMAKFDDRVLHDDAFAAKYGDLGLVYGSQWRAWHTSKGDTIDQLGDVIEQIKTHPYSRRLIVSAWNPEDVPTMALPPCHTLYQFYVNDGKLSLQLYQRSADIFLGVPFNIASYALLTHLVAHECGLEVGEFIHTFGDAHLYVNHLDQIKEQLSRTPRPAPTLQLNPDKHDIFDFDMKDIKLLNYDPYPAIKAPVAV
The procedure:
as §1

The target of experiment [3] is Bifunctional dihydrofolate reductase-thymidylate synthase (Leishmania major, UniProt P07382). Here is the method: as §1
The target of experiment [4] is Thymidylate synthase (Escherichia coli (strain K12), UniProt P0A884). Here is the method:
as §1

Experiment [5] concerns the target T2, Thymidylate synthase (Pneumocystis carinii, UniProt P13100).
T2 sequence (P13100 whole entry): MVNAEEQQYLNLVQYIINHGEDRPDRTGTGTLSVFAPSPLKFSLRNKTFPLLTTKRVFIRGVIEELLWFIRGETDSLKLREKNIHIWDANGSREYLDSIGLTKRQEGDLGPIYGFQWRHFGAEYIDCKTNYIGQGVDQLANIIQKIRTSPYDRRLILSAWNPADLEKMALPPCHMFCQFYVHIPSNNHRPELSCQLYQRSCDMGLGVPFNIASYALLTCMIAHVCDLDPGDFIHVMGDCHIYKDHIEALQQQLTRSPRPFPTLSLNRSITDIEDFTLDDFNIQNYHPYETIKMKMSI
The procedure: as §1

As a reminder, the Ki is a dissociation constant, usually derived from enzyme kinetics or from competition with a known ligand.

Thymidylate synthase (Escherichia coli (strain K12), UniProt P0A884), sequence (P0A884 whole entry): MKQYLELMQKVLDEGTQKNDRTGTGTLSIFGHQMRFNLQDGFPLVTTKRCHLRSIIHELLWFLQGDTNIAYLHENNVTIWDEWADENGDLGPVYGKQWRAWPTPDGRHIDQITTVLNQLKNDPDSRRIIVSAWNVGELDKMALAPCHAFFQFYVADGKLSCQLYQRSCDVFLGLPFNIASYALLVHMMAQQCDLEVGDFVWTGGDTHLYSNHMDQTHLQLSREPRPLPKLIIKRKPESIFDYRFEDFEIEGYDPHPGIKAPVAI
Thymidylate synthase (Homo sapiens, UniProt P04818), sequence (P04818 whole entry): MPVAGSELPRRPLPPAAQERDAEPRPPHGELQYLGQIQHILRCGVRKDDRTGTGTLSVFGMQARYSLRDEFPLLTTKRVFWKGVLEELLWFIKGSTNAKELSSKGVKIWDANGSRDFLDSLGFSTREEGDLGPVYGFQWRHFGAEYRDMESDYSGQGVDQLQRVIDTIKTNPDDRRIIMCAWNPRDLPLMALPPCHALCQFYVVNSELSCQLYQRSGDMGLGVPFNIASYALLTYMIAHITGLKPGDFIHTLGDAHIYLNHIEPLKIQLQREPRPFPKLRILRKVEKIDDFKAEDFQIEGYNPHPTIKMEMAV
Bifunctional dihydrofolate reductase-thymidylate synthase, sequence (P07382 whole entry): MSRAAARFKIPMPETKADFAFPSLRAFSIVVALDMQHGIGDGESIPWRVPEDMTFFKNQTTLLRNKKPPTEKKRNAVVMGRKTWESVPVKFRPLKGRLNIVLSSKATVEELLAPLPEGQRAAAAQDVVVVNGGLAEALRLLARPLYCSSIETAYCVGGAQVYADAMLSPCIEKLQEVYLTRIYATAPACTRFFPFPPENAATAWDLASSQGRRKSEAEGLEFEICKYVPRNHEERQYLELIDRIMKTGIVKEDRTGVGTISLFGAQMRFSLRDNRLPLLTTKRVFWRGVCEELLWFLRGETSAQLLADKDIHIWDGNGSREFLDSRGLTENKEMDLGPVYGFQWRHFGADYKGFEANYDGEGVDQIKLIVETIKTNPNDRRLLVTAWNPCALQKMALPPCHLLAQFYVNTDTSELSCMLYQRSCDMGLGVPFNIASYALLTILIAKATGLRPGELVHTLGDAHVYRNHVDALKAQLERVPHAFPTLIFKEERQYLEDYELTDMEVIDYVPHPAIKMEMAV

Consider `O=C1OC(c2ccc(O)c(F)c2)(c2ccc(O)c(F)c2)c2ccc(Cl)c3cccc1c23` [Phenolnaphthalein derivative, 3], for which the inhibition constant (Ki) was greater than 245 µM in experiment [1]; 1.8 µM in experiment [2]; greater than 1080 µM in experiment [3]; 1.1 µM in experiment [4]; 22 µM in experiment [5].

Molecule `O=C1OC(c2ccc(O)c(F)c2)(c2ccc(O)c(F)c2)c2cccc3cccc1c23` [Phenolnaphthalein derivative, 1] had a Ki in experiment [3] greater than 1780 µM.

In experiment [3], `C#CCN(Cc1ccc2nc(N)[nH]c(=O)c2c1)c1ccc(C(=O)N[C@@H](CCC(=O)O)C(=O)O)cc1` had a Ki of 0.08 µM.

On to `O=C1OC(c2ccc(O)c(Br)c2)(c2ccc(O)c(Br)c2)c2ccc(Cl)c3cccc1c23` [Phenolnaphthalein derivative, 2], for which the Ki in experiment [1] is greater than 245 µM; in experiment [2], 0.8 µM; in experiment [3], greater than 1080 µM; in experiment [4], 4.1 µM; in experiment [5], 28 µM.

Regarding `O=C1OC(c2ccc(O)c(Cl)c2)(c2ccc(O)c(Cl)c2)c2cccc3cccc1c23`, in experiment [3], the Ki is greater than 1080 µM.

On to `O=C1OC(c2ccc(O)c(Br)c2)(c2ccc(O)c(Br)c2)c2c1ccc1ccccc21` [Phenolnaphthalein derivative, 4], for which the Ki in experiment [1] is greater than 132 µM; in experiment [3], 63 µM; in experiment [4], 0.9 µM; in experiment [5], greater than 132 µM.

On to `O=C1OC(c2cc(Br)c(O)c(Br)c2)(c2cc(Br)c(O)c(Br)c2)c2c1ccc1ccccc21` [Phenolnaphthalein derivative, 5], for which the Ki in experiment [1] was greater than 245 µM; in experiment [3], 41 µM; in experiment [5] it was 32.7 µM.
